Results on one molecule are retold here after US20250213594A1 (priority 2023, published 2025).

For series [1] the following is noted: male, human, in vivo, po, 1 mg.
Experimental: A total of 40 non-smoking, healthy adult males were recruited for this study. Subjects who passed the screening process and were deemed eligible for the study were assigned to three groups. […] Each subject was followed up until day 43. In contrast, cohort 2 was divided into two groups. […] The subjects returned to the hospital according to a pre-determined schedule for 43 or 35 days and were assessed for tolerability, PK, and PD. […] In this study, the plasma drug concentration was analyzed on day 28 to investigate the comparative effect.
Whole blood was collected and centrifuged to obtain plasma. […] Maximum plasma concentration (Cmax), time to reach Cmax (Tmax), areas under the curve for 24 and 672 hours after dosing (AUC0-24, and AUC0-672), areas under the curve from time 0 to the last quantified concentration and to infinity (AUC0-t, and AUC0-inf), total plasma clearance, apparent total volume of distribution based on steady state or terminal phase, and elimination half-life were assessed.
PK analysis was based on a non-compartmental analysis approach and was performed in the PK population (patients who received at least one dose and had evaluable PK data). PK parameters were calculated using plasma concentrations and actual blood sampling times using Phoenix WinNonlin v. 8.3 (Certara, Princeton, NJ, USA) and summarized.
For series [2] the following is noted: 1 mg finasteride tablets, previous clinical studies; cited from earlier work.
On the set-up of series [3]: species or system human. To be noted: model estimate.
Experimental: PK and PD modeling were performed to determine the therapeutic dose in AGA. A two-compartment PK model using observed clinical study data was adopted. […] The effective dose for additional clinical studies was estimated using established PK/PD models. All PK/PD modeling and simulations were performed using Phoenix WinNonlin, v.8.3.
The next series deals with DHT. The experiment in a line: Phase 1 clinical study: plasma DHT as pharmacodynamic marker. The series is classed as in vivo, human.
Series [4] is classed as in vivo, human. To be noted: 1 mg QD oral 28 days, n = 10. Here is the method:
The study in the present disclosure was conducted in accordance with Therapeutic Goods Administration and Human Research Ethics Committee guidelines. The study was conducted at the Phase 1 Unit of Nucleus Network Pty Ltd in Brisbane, Australia from October 2021 to March 2022. The entire study was conducted in accordance with the provisions of the Declaration of Helsinki and Good Clinical Practice guidelines, and the protocol was registered at www.clinicaltrials.gov (NCT04945226; registration date: Jun. 30, 2021). Healthy men aged 18 to 55 years with a body mass index (BMI) of 18 to 32 kg/m^2 participated in this study. Potential subjects completed a signed informed consent form and were subjected to screening prior to the study. A total of 40 healthy, non-smoking adult men were included in the study across three cohorts (FIG. 1).
Each subject was followed up until day 43. In contrast, cohort 2 was divided into two groups.
Cohort 2 was divided into two groups. […]
The clinical status and vital signs of the subjects were evaluated before and after participation in the study to investigate adverse effects. Hematological parameters such as white blood cell, red blood cell, hemoglobin, hematocrit, and platelet counts were analyzed. Adverse effects (AEs) were recorded in terms of symptoms and signs, duration, intensity, relationship to study drug, action taken, outcome, and seriousness. […]

A short description of a further series: clinical. As to conditions: male, human, in vivo, po.

Each structure is given as a SMILES string.

As a reminder, the half-life is how long it takes for the measured level to halve. Higher therefore signals slow decline. In the case of `CC(C)(C)NC(=O)[C@H]1CC[C@H]2[C@@H]3CC[C@H]4NC(=O)C=C[C@]4(C)[C@H]3CC[C@]12C` [Finasteride], the “mean elimination half-life (t1/2el)” value in series [1] amounted to 6.9 h. Besides, the bioavailability entry in series [2] was “about 65%”. Besides, in series [3], the “tvCL2 (clearance between central compartment and peripheral compartment)” value is 18.9 L/h; the “tvCL (clearance from central compartment)” value is 18.4 L/h. In the series with DHT (1 mg oral QD 28 days), the “baseline-corrected median DHT values (%) at all time points” value is given as −74.04 to 3.58%. Also, in the series on DHT (all concentrations of IVL3001, oral 1 mg tablets), the “effect on DHT” value is on record as “inhibitory effect”. Moreover, the COVID-19 in series [4] is reported as 0 n (%). Moreover, the half-life in the series “clinical” (1 mg, mean elimination half-life (t1/2el)) was 6.4 h. The molecule also showed a half-life in “clinical” (in vivo mean half-life) of about 6.4 h.
